Several values for one entry are separate records, joined by “and”; a condition that tells them apart may be missing. Equal values may be shown once.
Legend:
[1] = Stability of conjugates in human blood plasma spiked with LB; type: in vitro ADME; conditions: 50% human blood plasma spiked with 10% LB, within three hours
Method: A 1 mM solution of the studied compound was prepared in PBS (150 mM NaCl, 2.6 mM KCl, 1.4 mM KH2PO4, 10 mM Na2HPO4, pH 7.4) with 20% DMSO. 50 μL of this solution was diluted in 950 μL matrix or human plasma (spiked with 10% LB) on ice. After brief vortex, 100 μL were immediately treated with 100 μL ice-cold MeCN (spiked with […] diphenhydramine as internal standard). The rest of the solution was incubated at 37° C. and 500 rpm in an eppendorf thermomixer. At various time points (30, 60, 120, 180 min), 100 L sample were taken and treated as described above. […] The AUC of the parent drug and its cleavage products and the internal standard was quantified using Compass QuantAnalysis quantification software. The relative AUC was calculated by AUC (compound)/AUC(ISTD). Procaine was used as a positive control as it readily degrades in human plasma.

LecA = target: T1, LecA (Pseudomonas aeruginosa, UniProt Q05097); experiment: Competitive binding assay based on fluorescence polarization with LecA; conditions: target LecA; read-out: IC50 ± s.d.
T1 construct: made in house
Method: LecA (according to Joachim et al.): A serial dilution of the test compounds was prepared in TBS/Ca (8.0 g/L NaCl, 2.4 g/L Tris, 0.19 g/L KCl, 0.15 g/L CaCl2·2 H2O), with 30% DMSO as co-solvent. […] The measured intensities were reduced by the values of only LecA in TBS/Ca and fluorescence polarization was calculated. The data was analysed with the MARS Data Analysis Software (BMG Labtech GmbH, Germany) and fitted according to the four-parameter variable slope model. Bottom and top plateaus were fixed according to the control compounds in each assay ((p-nitrophenyl)-p-D-galactoside) and the data was re-analysed with these values fixed. A minimum of three independent measurements on three plates was performed for each inhibitor.
Averages and standard deviations were calculated from at least three independent experiments.

P. aeruginosa PA14 = experiment: Antibiotic susceptibility (MIC assay, broth microdilution); type: cell-based, Pseudomonas aeruginosa PA14
Method: Bacterial strains were streaked on LB-agar plates (1% agar) from glycerol stocks and incubated at 37° C. overnight. Colonies were picked from plate and dispersed in fresh MiGler-Hinton broth II (MHB II) to yield an OD600 of 0.08-0.13. This dispersion was diluted 1:100 in fresh MHB II, which was then used for the assay to achieve a final inoculum of 5×10^5 CFU/mL. 50 μL inoculum was mixed with 50 μL of the serial dilution in the corresponding well of the 96-well plate.
The different matrices were prepared under sterile conditions: (i) 5 mL human plasma and 1 mL sterile filtrate from an P. aeruginosa PA14 overnight culture in LB were mixed with 4 mL PBS; (ii) 1 mL sterile filtrate from an P. aeruginosa PA14 overnight culture was diluted in 9 mL PBS; (iii) PBS only and (iv) 5 mL human plasma and 1 mL LB were mixed with 4 mL PBS. 6 L of each compound dilution series was diluted in 115 L matrix (˜-1:20 dilution) in a 96-well format at time point T=−3 h or T=−10 min.
The plates prepared at T=−3 h were sealed with gas-permeable foil and incubated at 37° C. in a humid incubator. The other plates were kept at room temperature. At T=0 h, 50 µL of each well was mixed with 50 μL incoculum (as described above) in double-concentrated MHBII in a sterile 96-well plate.
The plates were sealed with gas-permeable foil and incubated at 37° C. for 18-20 h in a humid incubator. Growth inhibition was assessed by visual inspection and given MIC values are the lowest concentration of antibiotic at which there was no visible growth.

[2] = Plasma protein binding assay (RED), murine plasma; type: in vitro ADME; conditions: mouse blood plasma
Method: Plasma protein binding was assessed using the rapid equilibrium device (RED) system from ThermoFisher. […] Dialysis buffer and plasma samples were added to the respective chambers according the manufacturer's protocol. The RED plate was sealed with a tape and incubated at 37° C. for 2 hours at 800 rpm on an Eppendorf MixMate® vortex-mixer. Then samples were withdrawn from the respective chambers. To 25 μl of each dialysis sample, 25 μl of plasma and to 25 μl of plasma sample, 25 l of dialysis buffer was added. […] Samples were incubated for 30 min on ice. Then samples were centrifuged at 4° C. at 2270 ref for 10 min. Supernatants were transferred to Greiner V-bottom 96-well plates and sealed with a tape. Then samples were subjected to HPLC-MS/MS analysis as described in the section ‘HPLC-MS/MS analysis’. The percentage of bound compound was calculated as follows: […]
Cell samples as well as plasma stability, plasma protein binding and metabolic stability samples were analysed using an Agilent 1290 Infinity II coupled to an AB Sciex 6500plus mass spec-trometer. LC conditions were as follows: column: Agilent Zorbax Eclipse Plus C18, 50×2.1 mm, 1.8 m; temperature: 30° C.; injection volume: 5 l per sample; flow rate: 700 l/min. Solvents: A: water+0.1% formic acid; solvent B: 95% acetonitrile/5% H2O+0.1% formic acid. […]

LecB PA14 = LecB PA14 (Pseudomonas aeruginosa, UniProt A0A0H2ZE85); type: binding; conditions: target LecB PA14
Method: LecB (LecB PAO1 according to Hauck et al. and LecB PA14 according to Sommer et al.): A serial dilution of the test compounds was prepared in TBS/Ca, with 20% DMSO as cosolvent. A concentrated solution of LecB PAO1 or PA14 was diluted in TBS/Ca together with the fluorescent reporter ligand (N-(fluorescein-5-yl)-N′-(α-l-fucopyranosyl ethylen)-thiocarbamide) to yield concentrations of 300 nM and 20 nM, respectively. 10 μL of this mix was added to 10 μL serial dilutions of the test compounds in a black 384-well microtiter plates (Greiner Bio-One, Germany, cat. no. 781900) in triplicates. After centrifugation (2680 ref, 1 min, room temperature), the reactions were incubated for 4-8 h at room temperature in a humidity chamber. Fluorescence was measured and analysed as for LecA. Bottom and top plateaus were fixed according to the control compound in each assay (1-fucose) and the data was re-analysed with these values fixed. A minimum of three independent measurements on three plates was performed for each inhibitor.

[3] = Matrix 1: PBS, pre-incubation 3 h
[4] = Matrix 1: PBS, pre-incubation <10 min
[5] = Matrix 2: 50% human blood plasma + 10% P. aeruginosa culture supernatant in PBS, pre-incubation 3 h
[6] = Matrix 2: 50% human blood plasma + 10% P. aeruginosa culture supernatant in PBS, pre-incubation <10 min
[7] = Matrix 3: 10% P. aeruginosa culture supernatant in PBS, pre-incubation 3 h
[8] = Matrix 3: 10% P. aeruginosa culture supernatant in PBS, pre-incubation <10 min
[9] = Matrix 4: 50% human blood plasma + 10% LB in PBS, pre-incubation 3 h
[10] = Matrix 4: 50% human blood plasma + 10% LB in PBS, pre-incubation <10 min

Chain of LecB PA14 (A0A0H2ZE85 entry or part of it): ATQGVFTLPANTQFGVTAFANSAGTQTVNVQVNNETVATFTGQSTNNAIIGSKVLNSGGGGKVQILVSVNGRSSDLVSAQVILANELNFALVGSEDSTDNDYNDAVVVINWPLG
T1 sequence (Q05097 whole entry): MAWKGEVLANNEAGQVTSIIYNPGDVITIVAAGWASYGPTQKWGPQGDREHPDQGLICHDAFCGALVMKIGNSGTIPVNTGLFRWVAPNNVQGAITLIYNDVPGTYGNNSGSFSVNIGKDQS

| SMILES | release of antibiotic cargo [1] | IC50 (LecA) | MIC (P. aeruginosa PA14; [3]) | MIC (P. aeruginosa PA14; [4]) | MIC (P. aeruginosa PA14; [5]) | MIC (P. aeruginosa PA14; [6]) | MIC (P. aeruginosa PA14; [7]) | MIC (P. aeruginosa PA14; [8]) | MIC (P. aeruginosa PA14; [9]) | MIC (P. aeruginosa PA14; [10]) | plasma protein binding mouse [2] | IC50 (LecB PA14) | Ki (LecB PA14; calculated as Ki from IC50, read-out: Ki ± s.d.) |
| --- | --- | --- | --- | --- | --- | --- | --- | --- | --- | --- | --- | --- | --- |
| CC(C)C[C@H](NC(=O)CNC(=O)[C@H](C)NC(=O)c1ccc(S[C@@H]2O[C@H](CO)[C@H](O)[C@H](O)[C@H]2O)cc1)C(=O)N[C@@H](C)C(=O)N[C@H]1CCN(c2cc3c(cc2F)c(=O)c(C(=O)O)cn3C2CC2)C1 [Compound 36] | no significant release of their antibiotic cargo | ~30000 nM | >25 µM | >25 µM | 0.1 µM | 0.195 to 0.39 µM | 0.195 to 3.13 µM | 0.78 to 3.13 µM | 0.78 to 6.25 µM | ≥25 µM | 74% |  |  |
| CC(C)CC(NC(=O)CNC(=O)C(C)NC(=O)c1ccc(S(=O)(=O)NCC2OC(C)C(O)C(O)C2O)cc1)C(=O)NC(C)C(=O)NC1CCN(c2cc3c(cc2F)c(=O)c(C(=O)O)cn3C2CC2)C1 (centres unmarked) [Compound 37] | no significant release of their antibiotic cargo |  | >25 µM | >25 µM | 0.1 to 0.195 µM | 0.78 to 1.56 µM | 0.39 to 3.13 µM | 1.56 to 12.5 µM | 0.78 to 6.25 µM | ≥25 µM | 30% and 30.1 ± 9.2% | 750 ± 160 nM | 270 ± 60 nM |

Source: US20250295790A1, “LECTIN-TARGETING CONJUGATES” (Helmholtz-Zentrum für Infektionsforschung GmbH, priority 2021, published 2025)
